From US9670242B2, “Tetracyclic anthraquinone derivatives” (Tianjin Hemay Bio-Tech Co., Ltd, priority 2012, dated 2017)

Legend:
[1] = Solubility of the compound in water; format: physicochemical
[2] = system: SK-OV-3 cells; test: SK-OV-3 cell growth inhibition test (MTT assay); format: cell-based, human; details: growth inhibition at 667 nM, 69 h
Method: SK-OV-3 Cell Growth Inhibition Test (MTT Assay)
Cell strains: SK-OV-3 (human ovarian cancer cell strains); MTT; antitumor compounds; DMSO.
(§1) II. Reagents and Consumable Materials
Culture medium: 90% McCoy's 5A+10% FBS; Pancreatin (0.25% (w/v) solution was formulated with PBS, 0.53 mM of EDTA was added in the formulation); PBS; 96-well culture plate.
(§2) 1. A plate (10 cm) of cells in logarithmic growth phase that were normally cultured was collected;
(§3) 2. The culture solution was sucked out. The plate was washed with 5 mL of PBS once or twice;
(§4) 3. PBS was sucked out. 1.5 mL of 0.25% pancreatin was added to infiltrate the cells;
4. The pancreatin was sucked out. The culture plate was placed in an incubator. Digestion was carried out for about 5 min at 37° C.;
5. 4.5 mL of complete culture solution was added to the culture plate to stop the digestion. The cells were carefully scoured with micropipette (1 ml) to give a uniform cell suspension. The suspension was implanted into a 96-well cell culture disc by 4000 cells/100 μL per well. The culture plate was incubated overnight under 5% CO2 at 37° C. In day 2, 100 μL of culture solution comprising a compound was added in each well. The plate was further incubated for 69 h under 5% CO2 at 37° C.;
(§5) 6. The culture solution was sucked out;
(§6) 7. 100 μL of serum-free culture solution containing 0.5 mg/mL MTT was added in each well. The plate was incubated for 3 h;
(§7) 8. The culture solution was carefully sucked out;
9. 100 μL of DMSO was added in each well and vibrated to dissolve;
(§8) 10. OD values were determined at 490 nM.
(§9) IV. Results and Treatments
(§10) 1. Calculation of Relative Inhibition Ratio The inhibition ratio of a compound on cell growth=(PC−n)/(PC−NC)×100%
(§11) PC: OD values of cells after normal growth in control wells without a compound;
(§12) n: OD values of cells after growth in test wells with a compound;
(§13) NC: Background OD values of blank wells without a compound and cells.

[3] = system: 22Rv1 cells; test: 22Rv1 cell growth inhibition test (SRB assay); format: cell-based, human; details: growth inhibition at 222 nM, 73 h
Method: 22Rv1 Cell Growth Inhibition Test (SRB Assay)
Cell strains: 22Rv1 (human prostate cancer cell strains); SRB: 0.4% (w/v) working solution was formulated with 1% glacial acetic acid, reserved at 4° C.; antitumor compounds; DMSO.
as §1
(§14) Culture medium: 90% RPMI-1640+10% FBS; Pancreatin (0.25% (w/v) solution was formulated with PBS, 0.53 mM of EDTA was added in the formulation); PBS; 96-well culture plate.
as §2, §3
(§15) 3. 1.5 mL of 0.25% pancreatin was added to the plate to infiltrate the cells;
(§16) 4. The pancreatin was sucked out. The culture plate was placed in an incubator. Digestion was carried out for about 3 min at 37° C.;
5. 4 mL of complete culture solution was added to the culture plate to stop the digestion. The cells were carefully scoured with micropipette (1 ml) to give a uniform single cell suspension. The suspension was implanted into a 96-well cell culture plate by 7000 cells/100 μL per well. The culture plate was incubated overnight under 5% CO2 at 37° C. In day 2, 100 μL of culture solution comprising a compound was added in each well. The plate was further incubated for 73 h under 5% CO2 at 37° C.;
(§17) 6. The culture solution was sucked out. 100 uL of TCA fixed cells which were diluted to 10% were added to each well. The plate was kept in a refrigerator for 1 h at 4° C.
(§18) 7. TCA stationary liquid was sucked out. Each well was washed with 150 μL of ddH2O five times;
(§19) 8. After the stationary liquid was cleansed, the plate was dried in the air at the room temperature;
(§20) 9. 60 μL of SRB staining solution was added in each well. The well was stained for 15 min at the room temperature;
(§21) 10. The SRB staining solution was sucked out. Each well was washed with 150 μL of 1% glacial acetic acid five times;
(§22) 11. After the SRB staining solution was cleansed, the plate was dried in the air at the room temperature;
(§23) 12. 100 μL of 10 mM Tris was added in each well. The plate was vibrated to dissolve out SRB;
(§24) 13. OD values were determined at 570 nM.
as §9, §10, §11, §12, §13

[4] = system: BxPc-3 cells; test: BxPc-3 cell growth inhibition test (MTT assay); format: cell-based, human; details: growth inhibition at 2000 nM, 70 h
Method: BxPc-3 Cell Growth Inhibition Test (MTT Assay)
Cell strains: BxPC-3 (human pancreatic cancer cell strains); MTT; antitumor compounds; DMSO.
as §1, §14, §2, §3, §4
4. The culture plate was placed in an incubator. Digestion was carried out for about 8 min at 37° C.;
5. 4.5 mL of complete culture solution was added to the culture plate to stop the digestion. The cells were carefully scoured with micropipette (1 ml) to give a uniform cell suspension. The suspension was implanted into a 96-well cell culture disc by 5000 cells/100 μL per well. The culture plate was incubated overnight under 5% CO2 at 37° C. In day 2, 100 μL of culture solution comprising a compound was added in each well. The plate was further incubated for 70 h under 5% CO2 at 37° C.;
as §5, §6, §7
(§25) 9. 100 μL of DMSO was added into each well and vibrated to dissolve;
as §8, §9, §10, §11, §12, §13

[5] = system: NCI-H446 cells; test: NCI-H446 cell growth inhibition test (MTT assay); format: cell-based, human; details: growth inhibition at 222 nM, 70 h
Method: NCI-H446 Cell Growth Inhibition Test (MTT Assay)
Cell strains: NCI-H446 (human small cell lung cancer cell strains); MTT; antitumor compounds; DMSO.
as §1, §14, §2, §3, §4
4. The culture plate was placed in an incubator. Digestion was carried out for about 3 min at 37° C.;
5. 3 mL of complete culture solution was added to the culture plate to stop the digestion. The cells were carefully scoured with micropipette (1 ml) to give a uniform cell suspension. The suspension was implanted into a 96-well cell culture disc by 4000 cells/100 μL per well. The culture plate was incubated overnight under 5% CO2 at 37° C. In day 2, 100 μL of culture solution comprising a compound was added in each well. The plate was further incubated for 70 h under 5% CO2 at 37° C.;
as §5, §6, §7, §25, §8, §9, §10, §11, §12, §13

[6] = system: MDA-MB-453 cells; test: MDA-MB-453 cell growth inhibition test (SRB assay); format: cell-based, human; details: growth inhibition at 2000 nM, 69.5 h
Method: MDA-MB-453 Cell Growth Inhibition Test (SRB Assay)
Cell strains: MDA-MB-453 (human breast cancer cell strains); SRB: 0.4% (w/v) working solution was formulated with 1% glacial acetic acid, reserved at 4° C.; antitumor compounds; DMSO.
as §1
Culture medium: 90% L15+10% FBS; pancreatin (0.25% (w/v) solution was formulated with PBS, 0.53 mM of EDTA was added in the formulation); PBS; 96-well culture plate.
as §2, §3, §15, §16
5. 4 mL of complete culture solution was added to the culture plate to stop the digestion. The cells were carefully scoured with micropipette (1 ml) to give a uniform single cell suspension. The suspension was implanted into a 96-well cell culture plate by 7000 cells/100 μL per well. The culture plate was incubated overnight under 5% CO2 at 37° C. In day 2, 100 μL of culture solution comprising a compound was added in each well.
The plate was further incubated for 69.5 h under 5% CO2 at 37° C.;
as §17, §18, §19, §20, §21, §22, §23, §24, §9, §10, §11, §12, §13

Row | SMILES | solubility of the compound in water [1] | Inhibition Ratio (%) [2] | Inhibition Ratio (%) [3] | Inhibition Ratio (%) [4] | Inhibition Ratio (%) [5] | Inhibition Ratio (%) [6]
1 | CC(=O)O.COc1cccc2c1C(=O)c1c(O)c3c(c(O)c1C2=O)CC(O)(C(=O)COC(=O)CCC(=O)NCCc1ccncc1)CC3O[C@H]1C[C@H](n2cccc2)[C@H](O)[C@H](C)O1 (stereo partly drawn) [Example 86] | more than 3 mg/ml | – | – | – | – | –
2 | CC(=O)O.COc1cccc2c1C(=O)c1c(O)c3c(c(O)c1C2=O)CC(O)(C(=O)COC(=O)CCC(=O)NCCc1ccccn1)CC3O[C@H]1C[C@H](n2cccc2)[C@H](O)[C@H](C)O1 (stereo partly drawn) [Example 84] | more than 12 mg/ml | – | – | – | – | –
3 | COc1cccc2c1C(=O)c1c(O)c3c(c(O)c1C2=O)CC(O)(C(=O)COC(=O)CCC(=O)NCCc1ccc(S(N)(=O)=O)cc1)CC3OC1CC(n2cccc2)C(O)C(C)O1 (stereo not drawn) [Example 38] | – | 67.6% | 56.3% | 82.4% | 62.6% | 75.8%
4 | COc1cccc2c1C(=O)c1c(O)c3c(c(O)c1C2=O)CC(O)(C(=O)COC(=O)CCC(=O)NCCc1ccncc1)CC3OC1CC(n2cccc2)C(O)C(C)O1 (stereo not drawn) [Example 32] | – | 59.7% | 61.7% | 83.4% | 59.3% | 78.3%
5 | COc1cccc2c1C(=O)c1c(O)c3c(c(O)c1C2=O)CC(O)(C(=O)COC(=O)CCC(=O)NN1CCOCC1)CC3OC1CC(n2cccc2)C(O)C(C)O1 (stereo not drawn) [Example 10] | – | 71.5% | 62.7% | 85% | 61.1% | 78.5%
6 | COc1cccc2c1C(=O)c1c(O)c3c(c(O)c1C2=O)CC(O)(C(=O)COC(=O)CCC(=O)NCCOCCOCCOCCO)CC3O[C@H]1C[C@H](n2cccc2)[C@H](O)[C@H](C)O1 (stereo partly drawn) [Example 1, 10-((3′-(pyrrol-1-yl)-2′,3′,6′-trideoxy-alphal-l-lyxo-hexylpyranyl)oxy)-7,8,9,10-tetrahydro-6,8,11-trihydroxy-13-oxo-14-(4-(2-(2-(2-(2-hydroxyethoxy)ethoxy)ethoxy)ethylamino)-4-oxo-butyrato)-1-methoxy-5,12-naphthalenedione] | – | 57.3% | 52.2% | 82.5% | 43.2% | 77.7%
7 | COc1cccc2c1C(=O)c1c(O)c3c(c(O)c1C2=O)CC(O)(C(=O)COC(=O)CCC(=O)N1CCN(CCCN(C)C)CC1)CC3OC1CC(n2cccc2)C(O)C(C)O1 (stereo not drawn) [Example 44] | – | 52.3% | 48.5% | 78.5% | 46.3% | 68.5%
8 | COc1cccc2c1C(=O)c1c(O)c3c(c(O)c1C2=O)CC(O)(C(=O)COC(=O)CCC(=O)Nc1cccnc1)CC3OC1CC(n2cccc2)C(O)C(C)O1 (stereo not drawn) [Example 24] | – | 61.4% | 63.6% | 84.7% | 61.8% | 79.8%
9 | CCN1CCN(C(=O)CCC(=O)OCC(=O)C2(O)Cc3c(O)c4c(c(O)c3C(OC3CC(n5cccc5)C(O)C(C)O3)C2)C(=O)c2c(OC)cccc2C4=O)CC1 (stereo not drawn) [Example 40] | – | 47.9% | 50.5% | 76.5% | 49% | 73%
10 | COc1cccc2c1C(=O)c1c(O)c3c(c(O)c1C2=O)CC(O)(C(=O)COC(=O)CCC(=O)NCc1ccncc1)CC3OC1CC(n2cccc2)C(O)C(C)O1 (stereo not drawn) [Example 26] | – | 67.6% | 60.8% | 82.7% | 66.9% | 79.9%
11 | COc1cccc2c1C(=O)c1c(O)c3c(c(O)c1C2=O)CC(O)(C(=O)COC(=O)CCC(=O)NCCCN1CCOCC1)CC3OC1CC(n2cccc2)C(O)C(C)O1 (stereo not drawn) [Example 12] | – | 48.8% | 53.3% | 74.9% | 54.6% | 73.7%
12 | COc1cccc2c1C(=O)c1c(O)c3c(c(O)c1C2=O)CC(O)(C(=O)COC(=O)CCC(=O)NCCc1ccccn1)CC3OC1CC(n2cccc2)C(O)C(C)O1 (stereo not drawn) [Example 34] | – | 59.4% | 63.3% | 84% | 60.7% | 80.5%
13 | COc1cccc2c1C(=O)c1c(O)c3c(c(O)c1C2=O)CC(O)(C(=O)COC(=O)CCC(=O)Nc1ccncc1)CC3OC1CC(n2cccc2)C(O)C(C)O1 (stereo not drawn) [Example 22] | – | 60.3% | 56.3% | 82% | 62.1% | 71.1%
